Measured values published in US12551537B2, “Methods and compositions for the treatment and prevention of type 1 diabetes” (Dr. Mary Morris & Associates, LLC, priority 2019, dated 2026).

How the values were obtained:
[1] = system: non-obese diabetic (NOD) mice; experiment: Onset of hyperglycemia / Type 1 diabetes in NOD mice with sublingual treatment; format: in vivo, mouse; settings: for Median Survival (time to Type 1 diabetes onset): female NOD mice, sublingual 87 μg once per day, diabetic = three consecutive blood glucose readings above 300 mg/dL, control 21 weeks; for Gehan-Breslow-Wilcoxon test: Are the survival curves significantly different? / Log-rank (Mantel-Cox) test: Are the survival curves significantly different?: vs control
Procedure: Sublingual formulation. A commercial high dose Humulin® solution (Humulin® R U-500) containing 500 units of insulin per mL is mixed with an additional equal volume (1:1 (vol:vol)) 100% glycerin. Each dose contains 10 μL of the Humulin®-glycerin solution, which contains 2.5 units (approximately 87 micrograms) of insulin in a solution having a final concentration of 52 vol. % glycerin.
NOD mice. Non-obese diabetic (NOD) mice, as described by Makino (Adv. Immunol. 51:285-322 (1992)), are used in the studies described herein. NOD mice provide an animal model for the spontaneous development of Type 1 diabetes. NOD mice develop insulitis as a result of leukocyte infiltration into the pancreatic islet, which in turn leads to the destruction of pancreatic islets and a Type 1 diabetic phenotype.
Five-week old female NOD mice were randomly assigned to three groups: (1) control group (1:1 glycerin/phosphate buffered saline (PBS)); (2) insulin-related peptide treatment (Humulin®) started at six weeks of age; or (3) insulin-related peptide treatment (Humulin®) started at ten weeks of age. Mice in the treatment groups (2) and (3) were sublingually administered 87 μg of Humulin® (10 μL of solution) once per day up to 30 weeks of age. Blood glucose measurements were taken once per week up to 20 weeks of age, and then twice per week thereafter. Mice were classified as diabetic after three consecutive blood glucose readings above 300 mg/dL (hyperglycemic).

[2] = system: serum C-peptide; experiment: Serum C-peptide levels in NOD mice (mouse C-peptide ELISA); format: in vivo; settings: sublingual 87 μg once per day up to 30 weeks of age, compared to untreated control NOD mice
Procedure: Serum C-peptide assay. The mouse C-peptide ELISA (ALPCO), which quantifies C-peptide protein products of mouse I and mouse II proinsulin genes, is used. Briefly, serum is collected by inserting a needle into the submandibular vein and collecting ˜0.2 mL of blood. The blood is centrifuged for 30 minutes at 17,000 rpm in a refrigerated centrifuge, and serum is collected and stored −80° C.
Five-week old female NOD mice are randomly assigned to three groups as described in Example 1: (1) control group (oil only); (2) insulin-related peptide treatment (Humulin®) started at six weeks of age; or (3) insulin-related peptide treatment (Humulin®) started at ten weeks of age. Mice in the treatment groups (2) and (3) are sublingually administered 87 μg of Humulin® once per day up to 30 weeks of age. Baseline C-peptide measurements are taken from serum drawn at week 6. Thereafter, C-peptide measurements are taken from serum drawn 1 time per 2 weeks beginning at week 20 up to 30 weeks of age.

[3] = system: islet cell autoantibody levels; experiment: Autoantibody titer in NOD mice (ELISA); format: in vivo, mouse; settings: sublingual 87 μg once per day up to 30 weeks of age, compared to untreated controls
From the text: Autoantibody titer assay. Commercially available ELISA assays are employed for detecting the presence of anti-insulin antibodies in serum samples collected from subjects.
Five-week old female NOD mice are randomly assigned to three groups as described in Example 1: (1) control group (oil only); (2) insulin-related peptide treatment (Humulin®) started at six weeks of age; or (3) insulin-related peptide treatment (Humulin®) started at ten weeks of age. Mice in the treatment groups (2) and (3) are sublingually administered 87 μg of humulin once per day up to 30 weeks of age. The subjects are assessed for baseline levels of autoantibodies at week 6. Thereafter, autoantibody titer measurements are taken once every other week beginning at week 15 up to 30 weeks of age.

[4] = FIG. 1A, treatment group 2, sublingual, started at six weeks of age, compared to control group
[5] = FIG. 1A, treatment started at 6 weeks of age
[6] = FIG. 1B, treatment started at 10 weeks of age

Substance: Humulin: commercial recombinant human insulin solution (Humulin R U-500, 500 units/mL) mixed 1:1 with 100% glycerin for sublingual dosing
- Median Survival (time to Type 1 diabetes onset) ([1]; FIG. 1A, started at 6 weeks of age up to 30 weeks): 27 weeks
- incidence (% T1D Onset) of Type 1 diabetes [1, 4]: significantly reduced
- onset time (weeks) of Type 1 diabetes [1, 4]: significantly reduced
- Ratio of median survival (control vs Humulin) [1, 5]: 0.778
- Reciprocal of ratio of median survival [1, 5]: 1.29
- Gehan-Breslow-Wilcoxon test: Are the survival curves significantly different? [1, 5]: Yes
- Log-rank (Mantel-Cox) test: Are the survival curves significantly different? [1, 5]: Yes
- Median Survival (time to Type 1 diabetes onset) ([1]; FIG. 1B, started at 10 weeks of age up to 30 weeks): 24 weeks
- Ratio of median survival (control vs Humulin) [1, 6]: 0.8750
- Reciprocal of ratio of median survival [1, 6]: 1.14
- Gehan-Breslow-Wilcoxon test: Are the survival curves significantly different? [1, 6]: No
- Log-rank (Mantel-Cox) test: Are the survival curves significantly different? [1, 6]: No
- serum C-peptide levels [2]: maintenance or enhanced serum C-peptide levels
- antigenic response (e.g., islet cell autoantibody levels) [3]: attenuated antigenic response
